The source of these data is the METLIN SMRT retention time set (Domingo-Almenara et al. 2019).

Each structure is given as a SMILES string.

This data set can be described thus: gradient 5% acetonitrile 3 min, to 50% in 2 min, to 85% in 15 min, held 3 min, 100 µL/min. The note with it: column: Zorbax Extend-C18 2.1 x 50 mm; eluents: water / acetonitrile, 0.1% formic acid. In a few lines:
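Retention times of pure standards were taken from adduct peaks that were selected by computer and manually inspected. Over 3 months, mixtures of ~100 molecules were run by HPLC–quadrupole time-of-flight mass spectrometry in positive and negative ionization mode. The Zorbax Extend-C18 column (2.1 × 50 mm, 1.8 μm) ran at 100 μL/min in water and acetonitrile, each containing 0.1% formic acid, with 40 μL dead volume and 900 μL dwell volume.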
Compound `Cc1nc2ccn(Cc3cccs3)c(=O)c2cc1C(=O)N1CCN(c2ccccn2)CC1` displayed an RP-LC retention time of 611 s.

Consider `Cc1cc(NS(=O)(=O)c2cc3n(c2)CCCNC3=O)ccc1F`, for which the RP-LC retention time turned out to be 671 s.

As to `CCCN1C(=O)c2c(C(=O)NCc3ccc(N(C)C)cc3)ncn2CC1(C)C(=O)NCCC(C)C` (stereo not given), the RP-LC retention time came to 649 s.

`CN(C)c1ccc(C(CNC(=O)c2ccc(Br)o2)N2CCOCC2)cc1` (stereo not given) yielded an RP-LC retention time of 626 s.

The compound `COC(=O)c1[nH]c2c(c1C)C(=O)CC(c1cc(OC)c(OC)c(OC)c1)C2` (stereo not given) showed an RP-LC retention time of 781 s.

As to `c1ccc(-c2nc(-c3ccc4c(c3)nnn4CCN3CCCCC3)no2)nc1`, the RP-LC retention time turned out to be 602 s.

With `O=C(Cc1ccc(F)cc1)N1CCC2(CC1)N=C(c1ccccc1)NO2`, the RP-LC retention time was found to be 792 s.

`CN1C(=O)C2CCCCN2c2ccc(C(=O)N3CCC4(CC3)OCCO4)cc21` (stereo not given): the RP-LC retention time is 750 s.

The compound `O=C(Cc1ccsc1)N1CCCC1(CO)Cc1ccccc1` (stereo not given) showed an RP-LC retention time of 805 s.

The compound `CCOc1ccc2cccc(NC(=O)Cc3cccc(OC)c3)c2n1` registered an RP-LC retention time of 1120 s.

Compound `CNC(=O)NC1CCN(c2nc3cccnc3n(Cc3ccc(C)cc3)c2=O)CC1` returned an RP-LC retention time of 860 s.

Turning to `Cc1ccc(NC(=O)N2CCC(N3CCN(Cc4ccccc4)C3=O)CC2)c(C)c1`, the RP-LC retention time is 843 s.

`O=C(NC1CCCC1)c1nc(C(=O)N2CCN(c3ccccn3)CC2)cs1` showed an RP-LC retention time of 595 s.

The compound `CCc1nccn1Cc1noc(-c2ccccc2)n1` had an RP-LC retention time of 634 s.

In turn, `CCCCNC(=O)C1CCC(=O)N(c2cc(OC)c(OC)c(OC)c2)C1c1ccc(OC)cc1` (stereo not given) returned an RP-LC retention time of 709 s.

In turn, `CC1CCN(C(=O)c2cn(-c3cc(-c4nc(C5CC5)no4)ccn3)cn2)CC1` yielded an RP-LC retention time of 907 s.

Turning to `Cc1nc2cc(N3CCCC(C(=O)Nc4ccc5c(c4)OCCO5)C3)cnc2nc1C` (stereo not given), the RP-LC retention time came to 711 s.

Regarding `CC(=O)Nc1cccc(Oc2nc(C)nc3sc4c(c23)CCCC4)c1`, the RP-LC retention time turned out to be 913 s.

As for `Fc1ccc2nc(Nc3nc(-c4ccncc4)cs3)sc2c1`, the RP-LC retention time was determined as 588 s.

The compound `O=C(N1CCOCC1)N1CCN(S(=O)(=O)c2cccc([N+](=O)[O-])c2)CC1` returned an RP-LC retention time of 668 s.

`COc1ccc(N2CC(c3nc(-c4ccc(C(F)(F)F)cc4)no3)CC2=O)c(OC)c1` (stereo not given): the RP-LC retention time is 1030 s.

Take `CCCN1CCN(CCCNC(=O)CN2C(=O)CCn3nc(-c4cn(C)c5ccccc45)cc32)CC1`: the RP-LC retention time came out at 589 s.

Compound `COc1cccc(OCC2c3ccsc3CCN2C(=O)CN(CC2CCCO2)C(C)=O)c1` (stereo not given) came in with an RP-LC retention time of 788 s.

Regarding `Cc1ccc(NC(=O)N2CCCC2c2nc(-c3cccc(F)c3)no2)c(C)c1` (stereo not given), the RP-LC retention time is 1030 s.

Compound `CCN(Cc1ccccc1)c1ccc(-c2noc(CN3CCSCC3)n2)cn1` had an RP-LC retention time of 1030 s.

Compound `Cc1ccc(CN2CC(=O)N(c3cccc(C)c3)[C@@H]3CS(=O)(=O)C[C@@H]32)cc1` displayed an RP-LC retention time of 855 s.

In turn, `COC(=O)c1ccc2c(=O)n(Cc3ccc(OC)cc3)c(N3CCC(C(N)=O)CC3)nc2c1` yielded an RP-LC retention time of 744 s.

On to `COc1cccc(COc2cn(C)c(C(=O)N3CCN(c4ncccn4)CC3)cc2=O)c1`, for which the RP-LC retention time is 605 s.

On to `CC(=O)c1ccc(C)cc1OC(=O)c1cccc2nc(C)oc12`, for which the RP-LC retention time came to 661 s.

The compound `CC(C)CN1C(=O)c2cccn2CC1C(=O)N1CCOCC1` (stereo not given) registered an RP-LC retention time of 624 s.

In turn, `O=C(CSc1nnc(-c2ccncc2)o1)NCc1ccc2c(c1)OCO2` gave an RP-LC retention time of 596 s.

`Nc1nc(F)nc2c1ncn2[C@@H]1O[C@H](CO)[C@@H](O)[C@@H]1O` yielded an RP-LC retention time of 573 s.

For the compound `Cc1nc(-c2ccncc2)nc2c1CCC(=O)N2CC1CCCCC1`, the RP-LC retention time came out at 918 s.

For `Cc1ccc(-n2c(Cc3cccn3C)nnc2SCC(=O)NCC2CCCO2)cc1` (stereo not given), the RP-LC retention time was determined as 744 s.

On to `Cc1cc(N(C)C)nc(N2CCN(S(=O)(=O)c3ccc(-c4ccccc4)cc3)CC2)n1`, for which the RP-LC retention time was found to be 814 s.

`CCOC(=O)c1c(C)c(CCC(=O)NCCN2CCCCCC2)c(C)n1C` returned an RP-LC retention time of 656 s.

Compound `COc1ccc(-c2nc3ncccn3c2Nc2cccc(C(F)(F)F)c2)cc1` displayed an RP-LC retention time of 903 s.

In the case of `O=C(NCc1cccs1)C1CCN(Cc2cc3ccccc3n2Cc2cccc(F)c2)CC1`, the RP-LC retention time came out at 779 s.

For the compound `O=C(Nc1ccccc1[N+](=O)[O-])C(=O)N1CCN(Cc2ccc3c(c2)OCO3)CC1`, the RP-LC retention time was 592 s.

`CCCNC(=O)c1ccc2c(c1)CCN2C(C)=O` gave an RP-LC retention time of 635 s.

As for `COC(=O)c1ccc(NC(=O)c2ccc(-n3ccnc3C)nn2)cc1`, the RP-LC retention time came to 561 s.

For `Cc1oc2c(c1C(=O)NCCc1ccccc1)C1=NC(C)(C)CN1C=N2`, the RP-LC retention time turned out to be 653 s.

`O=C(NC1CCN(c2ccc(F)cc2)C1=O)c1ccc2c(c1)OCO2` (stereo not given) gave an RP-LC retention time of 764 s.

For `CCc1noc(-c2cc(=O)n(CC(=O)Nc3ccccc3OC)c3ccccc23)n1`, the RP-LC retention time turned out to be 962 s.

`Cc1ccc(-c2cc3c(=O)n(Cc4noc(CN5CCOCC5)n4)ccn3n2)cc1` returned an RP-LC retention time of 733 s.

On to `O=C(Nc1cccc(-c2nnc3n2CCCC3)c1)c1ccco1`, for which the RP-LC retention time amounted to 640 s.

`Cc1nnc2nc(-c3ccccc3)nc(-c3ccccc3)n12` displayed an RP-LC retention time of 1130 s.

Regarding `CCOc1ccc(N2C(=O)N(c3ccc(Cl)c(Cl)c3)C3CS(=O)(=O)CC32)cc1` (stereo not given), the RP-LC retention time turned out to be 915 s.

`CN(C)c1ccc(C(=O)N2CCCC2c2nc(-c3ccc(F)cc3)no2)cc1` (stereo not given) gave an RP-LC retention time of 1020 s.

Consider `CCCOc1nc2ccccc2nc1N1CCCC(C(=O)Nc2ccccc2)C1` (stereo not given), for which the RP-LC retention time stood at 1250 s.

`Clc1cccc(-c2noc(Cn3ccnc3)n2)c1` returned an RP-LC retention time of 636 s.

`COCCN1C(=O)[C@H]2CN(Cc3ccc(OC)cc3OC)C[C@H]2C1=O`: the RP-LC retention time was found to be 594 s.

With `CC(C)(C)c1csc(-c2csc(S(=O)(=O)NCc3ccccc3F)c2)n1`, the RP-LC retention time is 1220 s.

Take `COCCn1nc2n(c1=O)CCC1(CC2)CCN(C(=O)C2CC=CC2)CC1`: the RP-LC retention time was determined as 658 s.

The compound `CN(C)c1ccc(N2C=C(C(=O)N3CCCCC3)S(=O)(=O)c3ccccc32)cc1` yielded an RP-LC retention time of 898 s.

Take `O=C(C1CC(=O)N(c2n[nH]c3cccc(F)c23)C1)N1CCN(c2ccc(F)cc2)CC1` (stereo not given): the RP-LC retention time came to 740 s.

`CCn1nc(C)c(-c2cc(C(=O)NCC34CCC=C3N(C)C(=O)CC4)no2)c1C` (stereo not given) displayed an RP-LC retention time of 741 s.

`CCn1cc(S(=O)(=O)Nc2ccc(C)c(F)c2)c2cccnc21` yielded an RP-LC retention time of 799 s.

In turn, `CCC1(O)CCC12CCN(C(=O)c1ccoc1)CC2` (stereo not given) showed an RP-LC retention time of 691 s.

The compound `O=C(Cn1nc(C(=O)N2CCCC2)c2ccccc21)N1CCN(c2cccc(C(F)(F)F)c2)CC1` returned an RP-LC retention time of 983 s.

Turning to `O=C(Cn1cnc2c(-c3ccc(Cl)cc3)csc2c1=O)N1CCCCC1`, the RP-LC retention time amounted to 922 s.

Compound `CC1CCN(C(=O)C2CCN(c3nc4ccc(-c5ccccc5F)nc4s3)CC2)CC1` yielded an RP-LC retention time of 1170 s.

As to `O=C(Cc1csc(SCC(=O)c2cccs2)n1)NCCc1c[nH]c2ccccc12`, the RP-LC retention time was determined as 806 s.

`COc1ccc(-c2nc(C)cc(C)c2CNS(=O)(=O)c2ccccc2)cc1` had an RP-LC retention time of 639 s.

The compound `O=C(c1cc(C2CC2)on1)N1CCCC1` showed an RP-LC retention time of 718 s.

Compound `O=C(CN1C(=O)NC2(CCCCC2)C1=O)Nc1ccc2c(c1)OCCO2` yielded an RP-LC retention time of 708 s.

For the compound `CCC(CC)C(=O)Nc1c(-c2ccc(F)cc2)nc2cc(C)ccn12`, the RP-LC retention time came out at 674 s.

In turn, `Cc1ccc(-c2nc(-c3cccc(-c4ccn[nH]4)c3)no2)s1` came in with an RP-LC retention time of 1020 s.

Take `CN1CCN(C(=O)Cn2cccc2-c2nc(-c3ccccc3)cs2)CC1`: the RP-LC retention time amounted to 664 s.

`COc1cc(NC(=O)Cn2c(C)nc3c(sc4nc(-c5ccccc5)ccc43)c2=O)cc(OC)c1` had an RP-LC retention time of 1060 s.

For the compound `COc1ccc(CNC(=O)Nc2cccc(-c3ccc(N4CCOCC4)nn3)c2)cc1`, the RP-LC retention time stood at 655 s.

Compound `Cn1c(=O)oc2cc(-c3noc(CNC(=O)Cc4ccccc4)n3)ccc21` returned an RP-LC retention time of 760 s.

With `Cc1ccc(C)c(N2CCN(Cc3nc(-c4ccc(N5CCC(C)CC5)nc4)no3)CC2)c1`, the RP-LC retention time came to 1270 s.

On to `CCc1ccccc1NS(=O)(=O)c1cc(-c2c(CC)noc2NC(C)=O)ccc1OC`, for which the RP-LC retention time turned out to be 838 s.

Compound `O=C(CN1C(=O)CSc2ccc(C(=O)N3CCCCC3)cc21)NCCN1CCCCC1` registered an RP-LC retention time of 612 s.

Regarding `CCOC(=O)c1noc2nc(C)nc(NCC3CCN(Cc4cccc(C)c4)CC3)c12`, the RP-LC retention time was 609 s.

`COc1ccc(S(=O)(=O)N2CC3CN(C(=O)C4CCOC4)CC(C2)O3)cc1` (stereo not given) had an RP-LC retention time of 659 s.

In turn, `CC(C)(C)NC(=O)N1CCCN(C2CCN(Cc3ccccc3)C2=O)CC1` (stereo not given) came in with an RP-LC retention time of 618 s.

The compound `COCCNC(=O)CC1CCN(C(=O)c2[nH]c(C)c(C(=O)OC)c2C)CC1` registered an RP-LC retention time of 614 s.

In turn, `CC(C)n1cnc2cc(CNC(=O)c3ccccn3)ccc21` registered an RP-LC retention time of 590 s.
